Measured values published in patent publication US20240246918A1, “COMPOUNDS AND COMPOSITIONS AS EIF4E INHIBITORS AND THE USES THEREOF” (Ribometrix, Inc., priority 2022, published 2024).
Where two headings read alike, the source gives them in different places.

Experiments:
human eIF4E protein = biological target: T1, human eIF4E protein (Homo sapiens, UniProt P06730); test: Biochemical competitive binding assay (TR-FRET competition, EDA-m7GDP-ATTO-647N probe); settings: read-out: hEIF4E TR-FRET IC50
T1 construct: purchased Novus NBP-45314
Procedure, shortened: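 IC50 values come from 4-parameter fits of the normalized 665/620 nm TR-FRET ratio. Compound was first incubated 15 min with 4 nM recombinant His-eIF4E bound to 2.5 nM Eu-anti-His antibody, then 15 min with 5 nM m7GDP-ATTO-647N tracer, in pH 7.5 HEPES buffer with 100 mM KCl, Tween-20 and BSA.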

[1] = tested on: COLO 205 colorectal tumor cells; test: Tumor cell viability inhibition assay (CellTiter-Glo 2.0, 72 hours); type: cell-based; settings: COLO 205 cell viability
Procedure, shortened: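 IC50 derived by 4-parameter fitting after normalizing luminescence to DMSO and max-inhibition wells. Compounds tested as 11 concentrations in 4-fold steps on COLO 205 cells seeded at 1500 per well in RPMI-1640/10% FBS; ATP content measured with CellTiter-Glo 2.0 after 72 h.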

[2] = tested on: cap-dependent translation in Flp-In-293 reporter cells; test: Cellular cap-dependent translation inhibition assay (dual luciferase assay, DLA; Fluc/Rluc ratio, 24 hours); type: cell-based; settings: dual luciferase assay, Flp-In-293 reporter cells, 24 hours, Fluc/Rluc ratio, read-out: DLA 205 IC50
[3] = tested on: cyclin D1 protein levels in COLO 205 cells; test: Cyclin D1 cellular inhibition assay (HTRF, 6 hours); type: cell-based; settings: 6 hours of compound treatment, Cyclin D1 protein levels by HTRF, read-out: COLO 205 6 h Cyclin D1 TR-FRET IC50
Procedure, shortened: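 COLO 205 cells in RPMI-1640 with 10% FBS treated 6 h with 11-point compound dilutions at 1% DMSO final. Lysates assayed for cyclin D1 by HTRF. Signal normalized to DMSO and maximum-inhibition controls, with IC50 from 4-parameter fit.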

T1 sequence (P06730 whole entry): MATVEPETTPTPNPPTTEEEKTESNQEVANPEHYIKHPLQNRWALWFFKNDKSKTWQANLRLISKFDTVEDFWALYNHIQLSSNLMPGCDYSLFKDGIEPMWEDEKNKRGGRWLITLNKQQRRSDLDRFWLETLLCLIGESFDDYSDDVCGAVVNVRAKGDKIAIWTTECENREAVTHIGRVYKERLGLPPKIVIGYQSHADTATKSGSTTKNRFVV

Row | Compound | IC50 (human eIF4E protein) [nM] | IC50 ([1]; Homo sapiens, COLO 205, 72 h) [µM] | IC50 ([2]; Homo sapiens, Flp-In-293, 24 h) [nM] | IC50 ([3]; Homo sapiens, COLO 205, 6 h) [µM] | IC50 [1] [µM] | IC50 [2] [nM] | IC50 [3] [µM]
1 | Cc1cc(-c2cc(Cl)ccc2OCCn2c(C)nc3c(c2=O)CC(N(C)C2CC2)CC3)c2scc(C(=O)NS(C)(=O)=O)c2n1 (stereo not shown) [Compound 51] | < 100 | < 5 | < 1000 | < 5 | – | – | –
2 | Cc1cc(-c2cc(Cl)ccc2OCCn2c(C)nc3c(c2=O)C[C@H](N2CC[C@@H](F)C2)CC3)c2scc(C(=O)O)c2n1 (single isomer, unassigned) [Compound 328] | < 100 | < 5 | < 1000 | < 5 | – | – | –
3 | Cc1cc(-c2cc(Cl)ccc2OCCn2c(C)nc3c(c2=O)CC(N(CC2CC(F)(F)C2)C2CC2)CC3)c2scc(C(=O)O)c2n1 (single isomer, unassigned) [Compound 263] | < 100 | – | – | – | < 5 | < 1000 | < 5
4 | Cc1cc(-c2cc(Cl)ccc2OCCn2c(C)nc3c(c2=O)CC(N(C)C2(C4CCC4)CC2)CC3)c2scc(C(=O)O)c2n1 (single isomer, unassigned) [Compound 243] | < 100 | – | – | – | 5 to 20 | 1000 to 5000 | 5 to 20
5 | Cc1cc(-c2cc(Cl)ccc2OCCn2c(C)nc3c(c2=O)CC(N2CCCCC2)CC3)c2scc(C(=O)O)c2n1 (stereo not shown) [Compound 11] | < 100 | < 5 | < 1000 | < 5 | – | – | –
6 | Cc1cc(-c2cc(Cl)ccc2OCCn2c(C)nc3c(c2=O)CC(N(C)C)CC3)c2scc(C(=O)O)c2n1 (stereo not shown) [Compound 3, 7-[5-chloranyl-2-[2-[6-[di(methyl)amino]-2-methyl-4-oxidanylidene-5,6,7,8-tetrahydroquinazolin-3-yl]ethoxy]phenyl]-5-methyl-thieno[3,2-b]pyridine-3-carboxylic acid; 2,2,2-tris(fluorenyl)acetic acid] | < 100 | < 5 | < 1000 | < 5 | – | – | –
7 | Cc1cc(-c2cc(Cl)ccc2OCCn2c(C)nc3c(c2=O)CC(N(C)C)CC3)c2scc(C(=O)O)c2n1 (single isomer, unassigned) [Compound 13] | < 100 | < 5 | < 1000 | – | – | – | < 5
8 | Cc1cc(-c2cc(Cl)ccc2OCCn2c(C)nc3c(c2=O)CC(N(C)C2CC2)CC3)c2scc(C(=O)O)c2n1 (stereo not shown) [Compound 46] | < 100 | < 5 | < 1000 | < 5 | – | – | –
9 | Cc1cc(-c2cc(Cl)ccc2OCCn2c(C)nc3c(c2=O)CC(N2CC4COCC4C2)CC3)c2scc(C(=O)O)c2n1 (single isomer, unassigned) [Compound 70] | < 100 | – | – | < 5 | – | < 1000 | –
10 | Cc1cc(-c2cc(Cl)ccc2OCCn2c(C)nc3c(c2=O)CC(N(CC2CC(F)(F)C2)C2CC2)CC3)c2scc(C(=O)O)c2n1 (single isomer, unassigned) [Compound 257] | < 100 | 5 to 20 | < 1000 | 5 to 20 | – | – | –
11 | Cc1cc(-c2cc(Cl)ccc2OCCn2c(C)nc3c(c2=O)CC(N(C)C2(C4CCC4)CC2)CC3)c2scc(C(=O)O)c2n1 (single isomer, unassigned) [Compound 242] | < 100 | < 5 | < 1000 | < 5 | – | – | –
12 | Cc1cc(-c2cc(Cl)ccc2OCCn2c(C)nc3c(c2=O)CC(N2CCCCC2)CC3)c2scc(C(=O)NS(C)(=O)=O)c2n1 (stereo not shown) [Compound 31] | < 100 | < 5 | < 1000 | < 5 | – | – | –
13 | CO[C@@H]1CCN([C@@H]2CCc3nc(C)n(CCOc4ccc(Cl)cc4-c4cc(C)nc5c(C(=O)O)csc45)c(=O)c3C2)C1 (single isomer, unassigned) [Compound 42] | < 100 | < 5 | < 1000 | < 5 | – | – | –
14 | Cc1cc(-c2cc(Cl)ccc2OCCn2c(C)nc3c(c2=O)CC(N2CCCCC2)CC3)c2scc(C(=O)NS(C)(=O)=O)c2n1 (single isomer, unassigned) [Compound 241] | < 100 | < 5 | < 1000 | < 5 | – | – | –
15 | Cc1nc2c(c(=O)n1CCOc1ccc(Cl)cc1-c1cccc(C(=O)O)c1)CC(N(C)C)CC2 (stereo not shown) [Compound 1, 3-[5-chloranyl-2-[2-[6-[di(methyl)amino]-2-methyl-4-oxidanylidene-5,6,7,8-tetrahydroquinazolin-3-yl]ethoxy]phenyl]benzoic acid] | < 100 | 5 to 20 | < 1000 | 5 to 20 | – | – | –
16 | Cc1cc(-c2cc(Cl)ccc2OCCn2c(C)nc3c(c2=O)CC(N(C)CC2(C)COC2)CC3)c2scc(C(=O)O)c2n1 (stereo not shown) [Compound 18] | < 100 | < 5 | < 1000 | < 5 | – | – | –
17 | Cc1sc2c(-c3cc(Cl)ccc3OCCn3c(C)nc4c(c3=O)CC(N(C)C3CC3)CC4)cn(C)c(=O)c2c1C(=O)O (single isomer, unassigned) [Compound 244] | 100 to 500 | > 20 | > 5000 | > 20 | – | – | –

Row | Compound | IC50 (human eIF4E protein) [nM] | IC50 ([1]; Homo sapiens, COLO 205, 72 h) [µM] | IC50 ([2]; Homo sapiens, Flp-In-293, 24 h) [nM] | IC50 ([3]; Homo sapiens, COLO 205, 6 h) [µM] | IC50 [1] [µM] | IC50 [2] [nM] | IC50 [3] [µM]
18 | Cc1cc(-c2cc(Cl)ccc2OCCn2c(C)nc3c(c2=O)CC(N(CC2CC(F)(F)C2)C2CC2)CC3)c2scc(C(=O)NS(C)(=O)=O)c2n1 (single isomer, unassigned) [Compound 260] | < 100 | < 5 | < 1000 | < 5 | – | – | –
19 | Cc1cc(-c2cc(Cl)ccc2OCCn2c(C)nc3c(c2=O)CC(N(C)C)CC3)c2scc(C(=O)O)c2n1 (single isomer, unassigned) [Compound 14] | < 100 | – | – | – | 5 to 20 | 1000 to 5000 | > 20
20 | Cc1cc(-c2cc(Cl)ccc2OCCn2c(C)nc3c(c2=O)CC(N2CCCCC2)CC3)c2scc(C(=O)NS(C)(=O)=O)c2n1 (single isomer, unassigned) [Compound 245] | < 100 | – | – | – | 5 to 20 | < 1000 | 5 to 20
21 | Cc1cc(-c2cc(Cl)ccc2OCCn2c(C)nc3c(c2=O)C[C@H](N(C)C[C@H]2C[C@@H](C(F)(F)F)C2)CC3)c2scc(C(=O)O)c2n1 (stereo in doubt) [Compound 223] | < 100 | < 5 | – | < 5 | – | – | –
22 | Cc1cc(-c2cc(Cl)ccc2OCCn2c(C)nc3c(c2=O)CC(N2CCc4ccncc4C2)CC3)c2scc(C(=O)O)c2n1 (stereo not shown) [Compound 171] | < 100 | < 5 | – | < 5 | – | – | –
23 | Cc1cc(-c2cc(Cl)ccc2OCCn2c(C)nc3c(c2=O)C[C@H](N(C)[C@H]2CC[C@](C)(O)CC2)CC3)c2scc(C(=O)O)c2n1 (single isomer, unassigned) [Compound 227] | < 100 | > 20 | – | > 20 | – | – | –
24 | Cc1cc(-c2cc(Cl)ccc2OCCn2c(C)nc3c(c2=O)CC(N2CCc4cc(C(F)(F)F)ccc4C2)CC3)c2scc(C(=O)O)c2n1 (stereo not shown) [Compound 160] | < 100 | < 5 | – | < 5 | – | – | –
25 | Cc1cc(-c2cc(Cl)ccc2OCCn2c(C)nc3c(c2=O)CC(N(C)C2(C4CCC4)CC2)CC3)c2scc(C(=O)NS(C)(=O)=O)c2n1 (single isomer, unassigned) [Compound 232] | < 100 | – | – | – | < 5 | – | < 5
26 | Cc1cc(-c2cc(Cl)ccc2OCCn2c(C)nc3c(c2=O)C[C@H](N(C)[C@H]2CC[C@@](C)(O)CC2)CC3)c2scc(C(=O)NS(C)(=O)=O)c2n1 (single isomer, unassigned) [Compound 214] | < 100 | > 20 | – | > 20 | – | – | –
27 | Cc1cc(-c2cc(Cl)ccc2OCCn2c(C)nc3c(c2=O)CC(N(C)Cc2cccs2)CC3)c2scc(C(=O)O)c2n1 (stereo not shown) [Compound 197] | < 100 | < 5 | – | < 5 | – | – | –
28 | Cc1cc(-c2cc(Cl)ccc2OCCn2c(C)nc3c(c2=O)CC(NCC2CC(F)(F)C2)CC3)c2scc(C(=O)O)c2n1 (stereo not shown) [Compound 153] | < 100 | 5 to 20 | – | 5 to 20 | – | – | –
29 | Cc1cc(-c2cc(Cl)ccc2OCCn2c(C)nc3c(c2=O)CC(N(C)CC2CC(F)(F)C2)CC3)c2scc(C(N)=O)c2n1 (stereo not shown) [Compound 138] | 100 to 500 | 5 to 20 | – | > 20 | – | – | –
30 | Cc1cc(-c2cc(Cl)ccc2OCCn2c(C)nc3c(c2=O)CC(N(C)Cc2cccc(N)n2)CC3)c2scc(C(=O)O)c2n1 (stereo not shown) [Compound 173] | < 100 | 5 to 20 | – | > 20 | – | – | –
31 | Cc1cc(-c2cc(Cl)ccc2OCCn2c(C)nc3c(c2=O)CC(N2CCC4(CCC(F)(F)CC4)C2)CC3)c2scc(C(=O)O)c2n1 (stereo not shown) [Compound 170] | < 100 | < 5 | – | < 5 | – | – | –
32 | Cc1cc(-c2cc(Cl)ccc2OCCn2c(C)nc3c(c2=O)CC(N2CCC4(C2)CC(F)(F)C4)CC3)c2scc(C(=O)O)c2n1 (stereo not shown) [Compound 194] | < 100 | < 5 | – | < 5 | – | – | –
33 | Cc1cc(-c2cc(Cl)ccc2OCCn2c(C)nc3c(c2=O)CC(N2CCC(OC(F)(F)F)CC2)CC3)c2scc(C(=O)O)c2n1 (stereo not shown) [Compound 178] | < 100 | < 5 | – | < 5 | – | – | –
